Source: ChEMBL document CHEMBL1909046, “DrugMatrix in vitro pharmacology data”

What was measured:
[1] = biological target: Carbonic anhydrase 2 (Homo sapiens, UniProt P00918); assay: DRUGMATRIX: Carbonic Anhydrase II enzyme inhibition (substrate: 4-Nitrophenyl acetate (4-NPA)); format: tissue-based, Erythrocyte; conditions: erythrocyte; Not Active = under 50% inhibition at 10 µM
[2] = biological target: T1, Neutrophil elastase (Homo sapiens, UniProt P08246); format: tissue-based;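 further: inhibition of neutrophil elastase enzyme activity, measured with a p-nitroanilide-linked peptide substrate; in other assays of this panel Not Active means under 50% inhibition at 10 µM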
T1 sequence (P08246 whole entry): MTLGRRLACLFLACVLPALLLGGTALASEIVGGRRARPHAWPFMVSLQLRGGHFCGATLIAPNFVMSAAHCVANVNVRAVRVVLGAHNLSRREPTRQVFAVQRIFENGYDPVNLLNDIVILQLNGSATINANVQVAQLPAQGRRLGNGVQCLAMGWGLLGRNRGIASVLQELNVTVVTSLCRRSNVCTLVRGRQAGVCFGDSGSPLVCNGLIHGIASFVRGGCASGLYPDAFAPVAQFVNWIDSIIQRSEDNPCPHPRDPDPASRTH

[3] = biological target: T2, Alpha-2A adrenergic receptor (Homo sapiens, UniProt P08913); format: cell membranes, Sf9, Membrane; conditions: sf9; further: in other assays of this panel Not Active means under 50% inhibition at 10 µM
T2 sequence (P08913 whole entry): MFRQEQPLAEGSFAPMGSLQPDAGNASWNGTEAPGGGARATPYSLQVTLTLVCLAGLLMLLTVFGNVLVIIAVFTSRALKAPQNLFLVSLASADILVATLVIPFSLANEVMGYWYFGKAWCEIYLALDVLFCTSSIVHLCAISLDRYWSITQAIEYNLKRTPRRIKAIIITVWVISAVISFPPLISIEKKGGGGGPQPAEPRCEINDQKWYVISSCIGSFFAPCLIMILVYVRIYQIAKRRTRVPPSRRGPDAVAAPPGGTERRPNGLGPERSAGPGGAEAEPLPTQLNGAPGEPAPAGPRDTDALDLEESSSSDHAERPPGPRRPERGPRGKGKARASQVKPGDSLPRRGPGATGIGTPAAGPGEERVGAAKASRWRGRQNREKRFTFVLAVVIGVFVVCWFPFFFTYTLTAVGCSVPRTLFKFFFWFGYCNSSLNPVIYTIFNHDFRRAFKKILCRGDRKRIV

[4] = biological target: T3, Amine oxidase [flavin-containing] A (Homo sapiens, UniProt P21397); assay: DRUGMATRIX: Monoamine Oxidase MAO-A enzyme inhibition (substrate: Kynuramine); set-up: species or system BTI-TN-5B1-4; conditions: bti-tn-5b1-4; Not Active = under 50% inhibition at 10 µM
T3 sequence (P21397 whole entry): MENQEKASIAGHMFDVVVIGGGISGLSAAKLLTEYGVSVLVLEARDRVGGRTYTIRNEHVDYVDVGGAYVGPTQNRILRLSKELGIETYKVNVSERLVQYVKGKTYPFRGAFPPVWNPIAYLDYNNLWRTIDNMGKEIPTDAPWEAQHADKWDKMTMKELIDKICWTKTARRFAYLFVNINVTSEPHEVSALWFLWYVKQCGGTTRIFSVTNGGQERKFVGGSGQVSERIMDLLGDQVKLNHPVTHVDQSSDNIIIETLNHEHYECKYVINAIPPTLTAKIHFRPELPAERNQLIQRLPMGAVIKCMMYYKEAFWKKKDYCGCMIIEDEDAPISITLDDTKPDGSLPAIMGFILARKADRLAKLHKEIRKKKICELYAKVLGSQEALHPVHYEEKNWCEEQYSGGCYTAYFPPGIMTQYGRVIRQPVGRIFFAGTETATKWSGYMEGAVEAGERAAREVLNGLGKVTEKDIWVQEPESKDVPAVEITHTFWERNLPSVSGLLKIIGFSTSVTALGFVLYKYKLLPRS

[5] = biological target: T4, Cysteinyl leukotriene receptor 1 (Homo sapiens, UniProt Q9Y271); format: cell membranes, CHO-K1, Membrane; conditions: cho-k1; further: in other assays of this panel Not Active means under 50% inhibition at 10 µM
T4 sequence (Q9Y271 whole entry): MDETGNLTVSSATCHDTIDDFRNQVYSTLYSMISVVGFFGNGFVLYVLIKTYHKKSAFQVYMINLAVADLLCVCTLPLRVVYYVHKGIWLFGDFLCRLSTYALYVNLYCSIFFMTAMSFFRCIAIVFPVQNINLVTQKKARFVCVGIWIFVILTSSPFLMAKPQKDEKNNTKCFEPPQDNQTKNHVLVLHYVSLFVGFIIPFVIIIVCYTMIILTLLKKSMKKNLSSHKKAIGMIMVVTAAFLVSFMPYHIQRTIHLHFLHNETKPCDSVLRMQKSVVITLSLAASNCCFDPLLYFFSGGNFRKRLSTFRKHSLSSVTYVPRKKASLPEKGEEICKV

[6] = DRUGMATRIX: Phorbol Ester radioligand binding (ligand: [3H] PDBu); format: cell membranes, Mus musculus, ICR, Brain, Membrane; conditions: Not Active = under 50% inhibition at 10 µM
[7] = DRUGMATRIX: Interleukin IL-1 radioligand binding (ligand: [125I] interleukin 1beta); format: cell membranes, Membrane; conditions: nih3t3; Not Active = under 50% inhibition at 10 µM
[8] = DRUGMATRIX: Glutamate, NMDA, Phencyclidine radioligand binding (ligand: [3H] TCP); format: cell membranes, Rattus norvegicus, Wistar, Cerebral cortex, Membrane; conditions: Not Active = under 50% inhibition at 10 µM
[9] = DRUGMATRIX: Purinergic P2X radioligand binding (ligand: [3H] alpha, beta-Methylene-ATP); format: cell membranes, Oryctolagus cuniculus, New Zealand albino, Urinary bladder, Membrane; conditions: Not Active = under 50% inhibition at 10 µM
[10] = biological target: D(1A) dopamine receptor (Homo sapiens, UniProt P21728); assay: DRUGMATRIX: Dopamine D1 radioligand binding (ligand: [3H] SCH-23390); format: cell membranes, CHO, Membrane; conditions: cho; Not Active = under 50% inhibition at 10 µM
Chain of D(1A) dopamine receptor (P21728 whole entry): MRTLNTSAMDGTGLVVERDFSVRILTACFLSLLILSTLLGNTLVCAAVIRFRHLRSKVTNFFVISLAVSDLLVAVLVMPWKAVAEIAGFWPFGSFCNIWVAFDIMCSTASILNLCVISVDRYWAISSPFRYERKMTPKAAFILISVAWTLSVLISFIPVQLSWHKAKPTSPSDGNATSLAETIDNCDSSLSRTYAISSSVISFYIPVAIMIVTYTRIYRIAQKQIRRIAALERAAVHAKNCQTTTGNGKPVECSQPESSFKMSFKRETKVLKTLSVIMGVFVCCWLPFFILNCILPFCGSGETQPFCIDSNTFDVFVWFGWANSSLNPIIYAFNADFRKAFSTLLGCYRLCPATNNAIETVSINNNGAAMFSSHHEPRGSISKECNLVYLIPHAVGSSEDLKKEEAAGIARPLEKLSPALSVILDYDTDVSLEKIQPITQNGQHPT

[11] = DRUGMATRIX: Phosphodiesterase PDE3 enzyme inhibition (substrate: [3H]cAMP + cAMP); format: tissue-based, Homo sapiens; conditions: platelet, Not Active = under 50% inhibition at 10 µM
[12] = biological target: T5, Cholecystokinin receptor type A (Homo sapiens, UniProt P32238); format: cell membranes, Membrane; conditions: 1321-n1; further: in other assays of this panel Not Active means under 50% inhibition at 10 µM
T5 sequence (P32238 whole entry): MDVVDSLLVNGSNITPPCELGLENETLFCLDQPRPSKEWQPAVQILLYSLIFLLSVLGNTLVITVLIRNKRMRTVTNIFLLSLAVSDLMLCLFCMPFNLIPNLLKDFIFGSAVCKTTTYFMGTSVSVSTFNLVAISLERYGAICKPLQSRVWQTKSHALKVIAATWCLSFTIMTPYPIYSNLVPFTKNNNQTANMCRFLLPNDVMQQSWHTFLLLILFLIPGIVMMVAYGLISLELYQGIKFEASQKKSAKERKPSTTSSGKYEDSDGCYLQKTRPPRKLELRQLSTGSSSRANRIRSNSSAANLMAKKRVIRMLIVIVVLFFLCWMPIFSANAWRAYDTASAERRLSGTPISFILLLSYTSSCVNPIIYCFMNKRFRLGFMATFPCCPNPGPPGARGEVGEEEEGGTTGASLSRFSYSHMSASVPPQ

[13] = biological target: Estrogen receptor beta (Homo sapiens, UniProt Q92731); conditions: sf9; further: in other assays of this panel Not Active means under 50% inhibition at 10 µM
Chain of Estrogen receptor beta (Q92731 whole entry): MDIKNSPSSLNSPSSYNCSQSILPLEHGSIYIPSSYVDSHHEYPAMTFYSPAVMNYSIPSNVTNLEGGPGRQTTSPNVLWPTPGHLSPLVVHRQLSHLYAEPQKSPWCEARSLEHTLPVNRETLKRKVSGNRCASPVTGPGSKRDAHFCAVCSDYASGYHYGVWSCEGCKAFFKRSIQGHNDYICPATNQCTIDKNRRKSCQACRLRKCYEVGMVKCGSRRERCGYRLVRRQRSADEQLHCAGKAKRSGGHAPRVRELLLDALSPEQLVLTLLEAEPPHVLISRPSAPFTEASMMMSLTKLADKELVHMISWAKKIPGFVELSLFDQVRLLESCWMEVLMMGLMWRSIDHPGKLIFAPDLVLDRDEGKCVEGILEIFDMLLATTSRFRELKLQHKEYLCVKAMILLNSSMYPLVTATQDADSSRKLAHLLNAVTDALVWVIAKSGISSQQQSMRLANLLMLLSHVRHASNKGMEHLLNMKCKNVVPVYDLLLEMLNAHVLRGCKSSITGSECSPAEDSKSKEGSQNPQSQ

[14] = DRUGMATRIX: Platelet-Derived Growth Factor (PDGF) radioligand binding (ligand: [125I] PDGF); format: cell-based; conditions: nih3t3; Not Active = under 50% inhibition at 10 µM

## COCc1c(C(C)C)nc(C(C)C)c(/C=C/[C@@H](O)C[C@@H](O)CC(=O)O)c1-c1ccc(F)cc1 [CERIVASTATIN]
[1]
  IC50: Not Active
[2]
  IC50: Not Active
[3]
  IC50: Not Active
[4]
  IC50: Not Active
[5]
  IC50: Not Active
[6]
  IC50: Not Active
  Ki: Not Active
[7]
  IC50: Not Active
  Ki: Not Active
[8]
  IC50: Not Active
  Ki: Not Active
[9]
  IC50: Not Active
  Ki: Not Active
[10]
  IC50: Not Active
[11]
  IC50: Not Active
  Ki: Not Active
[12]
  IC50: Not Active
[13]
  IC50: Not Active
[14]
  IC50: Not Active
  Ki: Not Active

## CC(=O)O[C@]1(C(C)=O)CC[C@H]2[C@@H]3C=C(Cl)C4=CC(=O)CC[C@]4(C)[C@H]3CC[C@@]21C [CHLORMADINONE ACETATE]
[1]
  IC50: Not Active
[2]
  IC50: Not Active
[3]
  IC50: Not Active
[4]
  IC50: Not Active
[5]
  IC50: Not Active
[6]
  IC50: Not Active
  Ki: Not Active
[7]
  IC50: Not Active
  Ki: Not Active
[8]
  IC50: Not Active
  Ki: Not Active
[9]
  IC50: Not Active
  Ki: Not Active
[10]
  IC50: Not Active
[11]
  IC50: Not Active
  Ki: Not Active
[12]
  IC50: Not Active
[13]
  IC50: Not Active
[14]
  IC50: Not Active
  Ki: Not Active

## O=C1CCc2cc(OCCCCc3nnnn3C3CCCCC3)ccc2N1 [CILOSTAZOL]
[1]
  IC50: Not Active
[2]
  IC50: Not Active
[3]
  IC50: Not Active
[4]
  IC50: Not Active
[5]
  IC50: Not Active
[6]
  IC50: Not Active
  Ki: Not Active
[7]
  IC50: Not Active
  Ki: Not Active
[8]
  IC50: Not Active
  Ki: Not Active
[9]
  IC50: Not Active
  Ki: Not Active
[10]
  IC50: Not Active
[11]; read-out: IC50
  IC50: 271 nM
[12]
  IC50: Not Active
[13]
  IC50: Not Active
[14]
  IC50: Not Active
  Ki: Not Active

## O=C(O)c1cn(C2CC2)c2cc(N3CCNCC3)c(F)cc2c1=O [CIPROFLOXACIN]
[1]
  IC50: Not Active
[2]
  IC50: Not Active
[3]
  IC50: Not Active
[4]
  IC50: Not Active
[5]
  IC50: Not Active
[6]
  IC50: Not Active
  Ki: Not Active
[7]
  IC50: Not Active
  Ki: Not Active
[8]
  IC50: Not Active
  Ki: Not Active
[9]
  IC50: Not Active
  Ki: Not Active
[10]
  IC50: Not Active
[11]
  IC50: Not Active
  Ki: Not Active
[12]
  IC50: Not Active
[13]
  IC50: Not Active
[14]
  IC50: Not Active
  Ki: Not Active

## CN(C)CCCC1(c2ccc(F)cc2)OCc2cc(C#N)ccc21 (centres undefined) [CITALOPRAM]
[1]
  IC50: Not Active
[2]
  IC50: Not Active
[3]
  IC50: Not Active
[4]
  IC50: Not Active
[5]
  IC50: Not Active
[6]
  IC50: Not Active
  Ki: Not Active
[7]
  IC50: Not Active
  Ki: Not Active
[8]
  IC50: Not Active
  Ki: Not Active
[9]
  IC50: Not Active
  Ki: Not Active
[10]
  IC50: Not Active
[11]
  IC50: Not Active
  Ki: Not Active
[12]
  IC50: Not Active
[13]
  IC50: Not Active
[14]
  IC50: Not Active
  Ki: Not Active
